According to patent US20230374054A1, “METHOD FOR PURIFYING SUCRALOSE” (ANHUI JINHE INDUSTRIAL CO., LTD., priority 2020, published 2023):

Assays:
[1] = Bulk density determination (50 mL measuring cylinder, free-fall impact until compacted); assay type: physicochemical; conditions: sample compacted in 50 mL measuring cylinder, free-fall impact at 5 cm height
Procedure: Determination method of bulk density: A sample of an example is added to a 50 mL measuring cylinder and continuously subjected to free-fall impact at a height of 5 cm until the sample is compacted, and then a mass of the sample is measured to obtain bulk density data.

[2] = Accelerated stability test (ICH guideline), purity of the stored sucralose product by HPLC; assay type: physicochemical; conditions: 40° C. ± 2° C., 60% RH ± 5% RH
Procedure: A test and analysis method for the purity of sucralose involved in the present disclosure could refer to the Chinese National Standard “GB25531-2010 for Food Additive Sucralose”.
Analysis and determination conditions of the purity of sucralose: High-performance liquid chromatograph from Shimadzu, Japan: RID-10A differential refractive index detector, LC-10ADVP high-pressure pump, and CTO-10ASVP incubator; chromatographic column: Agilent XDB C18 column (250 mm×4.6 mm, 5 μm); mobile phase: methanol-0.125% dipotassium phosphate (DKP) aqueous solution (4:6); column temperature: 30° C.; and flow rate: 1.0 mL/min. Methanol (chromatographically pure), DKP (analytically pure), UPW, and sucralose (purity: 99.9%) are required, and a content is determined by an external standard method.
The products obtained according to Examples 1 to 6 and Comparative Examples 1 to 3 each were subjected to an accelerated stability test.

| SMILES | Bulk density [1] | Purity after storage, One month [2] | Purity after storage, Six months [2] | Purity after storage, Three months [2] | Purity after storage, Twelve months [2] | Purity after storage, Twenty-four months [2] |
| --- | --- | --- | --- | --- | --- | --- |
| OC[C@H]1O[C@H](O[C@]2(CCl)O[C@H](CCl)[C@@H](O)[C@@H]2O)[C@H](O)[C@@H](O)[C@H]1Cl [Comparative Example 1, sucralose] | 0.981 g/mL | 99.61% | 99.51% | 99.57% | 99.38% | 99.12% |
| OC[C@H]1O[C@H](O[C@]2(CCl)O[C@H](CCl)[C@@H](O)[C@@H]2O)[C@H](O)[C@@H](O)[C@H]1Cl [Comparative Example 2, sucralose] | 1.021 g/mL | 99.73% | 99.63% | 99.69% | 99.47% | 99.20% |
| OC[C@H]1O[C@H](O[C@]2(CCl)O[C@H](CCl)[C@@H](O)[C@@H]2O)[C@H](O)[C@@H](O)[C@H]1Cl [Comparative Example 3, sucralose] | 0.979 g/mL | 99.63% | 99.50% | 99.58% | 99.35% | 99.04% |
| OC[C@H]1O[C@H](O[C@]2(CCl)O[C@H](CCl)[C@@H](O)[C@@H]2O)[C@H](O)[C@@H](O)[C@H]1Cl [Example 1, sucralose] | 1.109 g/mL | 99.95% | 99.87% | 99.92% | 99.79% | 99.56% |
| OC[C@H]1O[C@H](O[C@]2(CCl)O[C@H](CCl)[C@@H](O)[C@@H]2O)[C@H](O)[C@@H](O)[C@H]1Cl [Example 2, sucralose] | 1.056 g/mL | 99.65% | 99.50% | 99.59% | 99.33% | 98.98% |
| OC[C@H]1O[C@H](O[C@]2(CCl)O[C@H](CCl)[C@@H](O)[C@@H]2O)[C@H](O)[C@@H](O)[C@H]1Cl [Example 3, sucralose] | 1.067 g/mL | 99.63% | 99.47% | 99.56% | 99.26% | 98.87% |
| OC[C@H]1O[C@H](O[C@]2(CCl)O[C@H](CCl)[C@@H](O)[C@@H]2O)[C@H](O)[C@@H](O)[C@H]1Cl [Example 4, sucralose] | 1.110 g/mL | 99.94% | 99.85% | 99.91% | 99.73% | 99.69% |
| OC[C@H]1O[C@H](O[C@]2(CCl)O[C@H](CCl)[C@@H](O)[C@@H]2O)[C@H](O)[C@@H](O)[C@H]1Cl [Example 5, sucralose] | 1.103 g/mL | 99.85% | 99.73% | 99.79% | 99.60% | 99.35% |
| OC[C@H]1O[C@H](O[C@]2(CCl)O[C@H](CCl)[C@@H](O)[C@@H]2O)[C@H](O)[C@@H](O)[C@H]1Cl [Example 6, sucralose] |  | 99.74% | 99.63% | 99.70% | 99.51% | 99.23% |
| OC[C@H]1O[C@H](O[C@]2(CCl)O[C@H](CCl)[C@@H](O)[C@@H]2O)[C@H](O)[C@@H](O)[C@H]1Cl [Raw material, sucralose] | 0.978 g/mL | 99.36% | 99.05% | 99.12% | 98.78% | 98.42% |
